Assay results from paper PMC6664820, “Novel natural and synthetic inhibitors of solute carriers SGLT1 and SGLT2” (Pharmacology Research & Perspectives, 2019).
“Also recorded” adds a separate entry of the source. Where two headings read alike, the source gives them in different places.

Columns and labels:
[1] = target: T1, SGLT1 (Homo sapiens, UniProt P13866); test: SGLT1 inhibition assay for validation of screening hits and similar compounds (1‐NBD‐glucose uptake, CHO‐hSGLT1 cells); format: cell-based; design: activity: dose or concentration left out as unconfirmed; conditions: for IC50: 1‐NBD‐glucose uptake, CHO‐hSGLT1, mean of n biological replicates, or individual measurements where n=2, read-out: SGLT1‐IC50 Mean; for SGLT1/2 inhibition stated in words: SGLT1 and/or SGLT2, discussion statements; for inhibition at 50 µM: mean inhibition with 50 μmol/L inhibitor, read-out: SGLT1 inhibition; for remaining activity at 5 µM / remaining activity at 50 µM: 0.5 h, concentration not given, read-out: NORMALIZED SGLT1 ACTIVITY (%); for remaining activity at 5 µM / remaining activity at 50 µM / activity: mean; for activity: compound, normalized 1-NBD-glucose uptake, CHO-hSGLT1 cells
T1 sequence (P13866 1-664): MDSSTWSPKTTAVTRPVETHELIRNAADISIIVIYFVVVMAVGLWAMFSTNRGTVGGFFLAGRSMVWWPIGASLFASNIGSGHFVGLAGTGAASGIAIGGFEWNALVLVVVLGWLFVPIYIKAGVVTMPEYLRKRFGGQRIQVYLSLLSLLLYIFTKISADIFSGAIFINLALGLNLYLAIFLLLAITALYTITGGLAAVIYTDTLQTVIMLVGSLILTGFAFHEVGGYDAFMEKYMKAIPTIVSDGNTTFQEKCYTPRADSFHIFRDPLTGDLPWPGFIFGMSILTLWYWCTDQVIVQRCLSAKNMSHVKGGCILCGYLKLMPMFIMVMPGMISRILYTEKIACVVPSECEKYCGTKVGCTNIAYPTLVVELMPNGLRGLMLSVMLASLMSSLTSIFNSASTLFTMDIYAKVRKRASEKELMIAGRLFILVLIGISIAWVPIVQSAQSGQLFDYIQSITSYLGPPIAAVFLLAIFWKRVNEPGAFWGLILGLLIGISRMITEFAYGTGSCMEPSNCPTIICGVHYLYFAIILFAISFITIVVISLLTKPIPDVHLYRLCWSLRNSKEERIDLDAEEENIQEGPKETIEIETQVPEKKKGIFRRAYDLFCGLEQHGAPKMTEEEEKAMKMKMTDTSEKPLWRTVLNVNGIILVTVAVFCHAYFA

[2] = target: T2, hSGLT2 (Homo sapiens, UniProt P31639); test: SGLT2 inhibition assay for validation of screening hits and similar compounds (1‐NBD‐glucose uptake, CHO‐hSGLT2 cells); format: cell-based; design: activity: dose or concentration left out as unconfirmed; conditions: for IC50: 1‐NBD‐glucose uptake, CHO‐hSGLT2, mean of n biological replicates, or individual measurements where n=2, read-out: SGLT2‐IC50 Mean; for inhibition at 50 µM: mean inhibition with 50 μmol/L inhibitor; for remaining activity at 5 µM / remaining activity at 50 µM: 0.5 h, concentration not given, read-out: NORMALIZED SGLT2 ACTIVITY (%); for remaining activity at 5 µM / remaining activity at 50 µM / activity: mean; for activity: compound, normalized 1-NBD-glucose uptake, CHO-hSGLT2 cells; for SGLT2/SGLT1 ACTIVITY RATIO 5 uM Mean: ratio of normalized SGLT2 to SGLT1 activity at 5 uM
T2 sequence (P31639 1-672): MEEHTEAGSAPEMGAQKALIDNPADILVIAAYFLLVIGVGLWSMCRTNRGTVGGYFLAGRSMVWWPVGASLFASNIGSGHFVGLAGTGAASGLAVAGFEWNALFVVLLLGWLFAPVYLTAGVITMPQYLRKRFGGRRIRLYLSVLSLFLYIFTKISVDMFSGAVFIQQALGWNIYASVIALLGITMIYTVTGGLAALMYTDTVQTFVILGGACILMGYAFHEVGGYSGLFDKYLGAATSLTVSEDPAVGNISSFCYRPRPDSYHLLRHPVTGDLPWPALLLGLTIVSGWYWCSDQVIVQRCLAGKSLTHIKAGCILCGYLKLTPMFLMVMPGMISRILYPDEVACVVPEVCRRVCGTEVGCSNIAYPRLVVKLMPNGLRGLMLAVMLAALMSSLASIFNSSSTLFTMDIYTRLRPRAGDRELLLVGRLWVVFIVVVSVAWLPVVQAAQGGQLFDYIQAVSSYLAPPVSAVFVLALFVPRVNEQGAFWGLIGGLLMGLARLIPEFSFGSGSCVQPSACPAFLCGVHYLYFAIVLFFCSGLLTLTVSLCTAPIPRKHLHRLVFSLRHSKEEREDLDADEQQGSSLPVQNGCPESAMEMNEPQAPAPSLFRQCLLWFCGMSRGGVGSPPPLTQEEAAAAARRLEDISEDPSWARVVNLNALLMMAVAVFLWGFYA

[3] = tested on: transporters; design: method as in earlier work; conditions: known transporter targets, per category of inhibited transporters, cited from earlier work
[4] = tested on: CHO‐hSGLT1/2 cells; test: Cytotoxicity assay (ToxiLight, adenylate kinase leakage into CHO‐SGLT1/2 inhibition assay media); design: CYTOTOXICITY / CY[…], mean / CYTOTOXICITY (% of vehicle control) Mean / CYTOTOXICITY, mean / CY[…] (% of vehicle control) Mean: dose or concentration left out as unconfirmed; conditions: mean;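 further: bioluminescent read-out of adenylate kinase released from lysed cells into the medium, given relative to DMSO vehicle control defined as 0%, higher meaning more cytolysis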

| SMILES | inhibition at 50 µM [1] | INHIBITED TRANSPORTERS [3] | activity [1] | activity [2] | SGLT2/SGLT1 ACTIVITY RATIO 5 uM Mean [2] | CYTOTOXICITY (% of vehicle control) Mean [4] | other results |
| --- | --- | --- | --- | --- | --- | --- | --- |
| CC(C)COCC(CN(Cc1ccccc1)c1ccccc1)N1CCCC1 (centres unmarked) [Bepridil, bepridil, reference compound] | 74% | CACNA1A, CACNA1H, CACNA2D2, KCNH2, KCNQ1, KCNH2 | – | – | – | – | IC50 [1]: 10 µM; SGLT1/2 inhibition stated in words [1]: showed SGLT1/2 inhibition; IC50 [2]: 14 µM; inhibition at 50 µM [2]: 70% |
| CCCCN1CCCCC1C(=O)Nc1c(C)cccc1C (centres unmarked) [Bupivacaine, bupivacaine, reference compound] | 64% | SCN10A | – | – | – | – | IC50 [1]: 23 µM; SGLT1/2 inhibition stated in words [1]: novel SGLT1/2 inhibitors; IC50 [2]: 43 µM |
| C=C[C@H]1C[N@@]2CC[C@H]1C[C@@H]2[C@@H](O)c1ccnc2ccc(OC)cc12 [Quinidine, quinidine, reference compound] | 50% | SLC22A1, SLC22A2, SLC22A5, SLCO1A2, SLC22A4; also recorded: SLC22A8, SLCO1B1 | – | – | – | – | IC50 [1]: 62 µM; remaining activity at 5 µM [1]: 93%; remaining activity at 50 µM [1]: 50%; IC50 [2]: 56 µM; remaining activity at 5 µM [2]: 92%; remaining activity at 50 µM [2]: 51%; inhibition at 50 µM [2]: 49% |
| COc1cc(O[C@@H]2O[C@H](CO)[C@@H](O)[C@H](O)[C@H]2O)c2c(c1)O[C@H](c1ccc(O)cc1)CC2=O [Sakuranin] | – | – | 98% | 100% | 1.0 | -1.5 % of vehicle control | – |
| CC(=O)OC1c2c(ccc3ccc(=O)oc23)OC(C)(C)C1OC(=O)C=C(C)C (centres unmarked) [Samidin] | – | – | 85% | 94% | 1.1 | -10 % of vehicle control | – |
| C/C=C(/C)C(=O)O[C@@H]1Cc2c(ccc3ccc(=O)oc23)OC1(C)C [Selinidin] | 12% | – | 99% | 94% | 0.952 | -6 % of vehicle control | inhibition at 50 µM [2]: 25% |
| COc1cc(/C=C/c2cc(O)cc(O)c2)c2c(c1)O[C@H](c1ccc(OC)c(O)c1)[C@H]2c1cc(O)cc(O)c1 [Shegansu B] | – | – | – | – | – | – | remaining activity at 5 µM [1]: 100%; remaining activity at 50 µM [1]: 100%; remaining activity at 5 µM [2]: 101%; remaining activity at 50 µM [2]: 103%; CYTOTOXICITY [4]: -25 |
| COc1ccc(-c2coc3cc(O[C@@H]4O[C@H](CO)[C@@H](O)[C@H](O)[C@H]4O)cc(O)c3c2=O)cc1 [Sissotrin] | – | – | 99% | 106% | 1.1 | -23 % of vehicle control | – |
| COc1cc(O)cc(/C=C/c2cccc(O)c2)c1 [Thunalbene] | – | – | – | – | – | – | remaining activity at 5 µM [1]: 106%; remaining activity at 50 µM [1]: 145%; remaining activity at 5 µM [2]: 108%; remaining activity at 50 µM [2]: 148%; CYTOTOXICITY [4]: -81 |
| CN1[C@@H]2CC[C@H]1C[C@@H](OC(c1ccccc1)c1ccccc1)C2 [benztropine] | – | SLC6A2, SLC6A3, SCN10A | – | – | – | – | – |
| CC1(C)Oc2ccc3ccc(=O)oc3c2[C@H](O)[C@@H]1O [cis-Khellactone] | – | – | 102% | 95% | 0.9 | -9 % of vehicle control | – |
| CCC(C)C(=O)O[C@H]1[C@H](OC(C)=O)c2c(ccc3ccc(=O)oc23)OC1(C)C (some centres unmarked) [peucedanocoumarin I] | – | – | 95% | 102% | 1.1 | 4.22 % of vehicle control | SGLT2/SGLT1‐50μmol/L (ratio of SGLT2 to SGLT1 activities with 50 μmol/L inhibitor) [1]: 2 |
| CC=C(C)C(=O)O[C@@H]1[C@H](OC(C)=O)c2c(ccc3ccc(=O)oc23)OC1(C)C [praeruptorin A] | – | – | 93% | 111% | 1.2 | -0.825 % of vehicle control | SGLT2/SGLT1‐50μmol/L (ratio of SGLT2 to SGLT1 activities with 50 μmol/L inhibitor) [1]: 3.1 |
| C/C=C(\C)C(=O)O[C@H]1c2c(ccc3ccc(=O)oc23)OC(C)(C)[C@H]1OC(=O)/C(C)=C/C [praeruptorin D] | – | – | 79% | 110% | 1.4 | -9 % of vehicle control | SGLT2/SGLT1‐50μmol/L (ratio of SGLT2 to SGLT1 activities with 50 μmol/L inhibitor) [1]: 2.6 |
| CC=C(C)C(=O)O[C@H]1[C@@H](OC(=O)CC(C)C)c2c(ccc3ccc(=O)oc23)OC1(C)C [praeruptorin E] | – | – | 73% | 123% | 1.7 | -1.25 % of vehicle control | SGLT2/SGLT1‐50μmol/L (ratio of SGLT2 to SGLT1 activities with 50 μmol/L inhibitor) [1]: 3.1 |
| C=C[C@H]1C[N@@]2CC[C@H]1C[C@H]2[C@H](O)c1ccnc2ccc(OC)cc12 [quinine, reference compound] | 24% | SLC22A1, SLC22A2, SLC22A5, SLCO1A2, SLC22A4 | – | – | – | – | remaining activity at 5 µM [1]: 101%; remaining activity at 50 µM [1]: 76%; remaining activity at 5 µM [2]: 92%; remaining activity at 50 µM [2]: 66%; inhibition at 50 µM [2]: 34% |
| Cc1nc2sccn2c(=O)c1CCN1CCC(=C(c2ccc(F)cc2)c2ccc(F)cc2)CC1 [ritanserin, reference compound] | – | – | – | – | – | – | SGLT2/SGLT1‐50μmol/L (ratio of SGLT2 to SGLT1 activities with 50 μmol/L inhibitor) [1]: 0.3; remaining activity at 5 µM [1]: 76%; remaining activity at 50 µM [1]: 44%; remaining activity at 5 µM [2]: 64%; remaining activity at 50 µM [2]: 15%; CYTOTOXICITY [4]: -5.28 |
| CCCN1CCCC[C@H]1C(=O)Nc1c(C)cccc1C [ropivacaine, reference compound] | 30% | SCN10A | – | – | – | – | SGLT1/2 inhibition stated in words [1]: novel SGLT1/2 inhibitors |
| CC(CN(C)C)CN1c2ccccc2CCc2ccccc21 (centres unmarked) [trimipramine, reference compound] | 43% | SLC6A2, SLC6A3, SLC6A4 | – | – | – | – | SGLT1/2 inhibition stated in words [1]: novel SGLT1/2 inhibitors |
| COc1ccc(CCN(C)CCCC(C#N)(c2ccc(OC)c(OC)c2)C(C)C)cc1OC (centres unmarked) [verapamil] | – | – | – | – | – | – | INHIBITED TRANSPORTERS ([3]; sodium (co-)transporters): SLC6A4, SLC22A1, SLC22A4, SLC22A5 |
| COc1ccc(-c2coc3cc(O[C@@H]4O[C@H](CO)[C@@H](O)[C@H](O)[C@H]4O)c(OC)cc3c2=O)cc1 [wistin] | – | – | 99% | 98% | 1.0 | -51 % of vehicle control | Cytotoxicity (percentage of bioluminescence of DMSO vehicle control, set at 0%) ([4]; CHO‐SGLT1 and CHO‐SGLT2 data combined, ≥20% considered toxic): −51% |
